20 molecules from US11702663B2, “Bacteria-based protein delivery” (Universitaet Basel, priority 2015, dated 2023) can be followed below.

Assay [1] relates to HeLa cells. The assay is classed as cell-based, human.
In a further assay the test system is B16F10 cells. The assay is classed as cell-based, murine.
In another assay the test system is D2A1 cells. The class given is cell-based.
In the next assay the test system is 4T1 cells. The assay is classed as cell-based, murine.
Assay [2] has as its system HeLa cells. The assay is classed as cell-based, human. This is another data set of the same source.
The subject of assay [3] is HeLa cells. The assay is classed as cell-based, human. This is another data set of the same source.
In assay [4] the test system is HeLa cells. In words: Western blotting of T3SS translocated proteins from infected cells (digitonin lysis). The class given is cell-based, human. As to conditions: HeLa cells coinfected with strain delivering 2×TEV cleavage site substrate, 2 h, MOI of 100. The text has this:
Western blotting of T3SS translocated proteins from infected cells. HeLa cells in 6-well plates were infected at an MOI of 100 as described above. In case of coinfection with the TEV protease translocating Y. enterocolitica strain, the OD600 of the strains was set and the two bacterial suspensions were mixed in a tube at a ratio of 1:1 (if not otherwise indicated) before addition to the cells. At the end of the infection, the cells were washed twice with ice-cold PBS and collected by scraping in a small volume of ice-cold PBS. After centrifugation (16 000 rcf, 5 min, 4° C.) the pellet was dissolved in 0.002% digitonin supplemented with a protease inhibitor cocktail (Roche complete, Roche). The dissolved pellets were incubated for 5 minutes on ice and then centrifuged (16 000 rcf, 25 min, 4° C.). Supernatants were collected and analyzed for total protein content by […] (Pierce) before SDS PAGE and Western blotting using an anti-Myc (Santa Cruz, 9E11) or anti-Ink4C (Cell Signaling) antibody.

Assay [5] concerns B16F10 murine melanoma cells. The class given is cell-based.
The test system of assay [6] is 4T1 murine breast cancer cells. The assay is classed as cell-based.
For a further assay, the system named is p38. The class given is cell-based, human.
The next assay concerns Akt. The class given is cell-based, human.
The test system of assay [7] is HeLa cells. The class given is cell-based, human. This is another data set of the same source.
Another assay relates to zebrafish embryos. The settings on record: in vivo.

Turning to “BH3 domain of murine BAX: YopE1-138 fusion to BH3 domain of murine BAX, codon optimized for Y. enterocolitica”, the cell death result in the assay on HeLa cells [1], in the assay with B16F10 cells, with D2A1 cells and in the assay with 4T1 cells was “induce massive cell death” throughout.

Consider “BH3 domain of murine BID: YopE1-138 fusion to BH3 domain of murine tBID, codon optimized for Y. enterocolitica”, for which the cell death result with HeLa cells [1], in the assay on B16F10 cells, in the assay with D2A1 cells and in the assay with 4T1 cells was “induce massive cell death” in each case.

Regarding “BepA: YopE1-138 fusion to full length type IV effector BepA from B. henselae”, the cAMP production result in the assay with HeLa cells [2] is reported as “triggered cAMP production in expected amounts”.

Turning to “BepAE305-end: YopE1-138 fusion to BepA E305-end containing the C-terminal Bid domain”, the cAMP production entry in the assay on HeLa cells [2] was “triggered cAMP production in expected amounts”.

On to “BepG: YopE1-138 fusion to the Bid domain of the B. henselae effector BepG”, for which the cAMP production result with HeLa cells [2] is listed as “failed to induce cAMP”.

Turning to “Murine tBID fused to full length SteA: full length SteA fused to murine tBID, delivered by S. enterica”, in the assay with HeLa cells [3], the “apoptosis induction (CASP3 p17 subunit)” value is “lead to apoptosis induction”.

Consider “TEV protease: TEV protease (S219V variant) fused to YopE1-138”, for which the “activity of T3SS delivered TEV protease” value in the assay with HeLa cells [4] is reported as “functional”.

Regarding “YopE1-138-(tBID BH3)2: murine BH3 domain of tBID fused to itself, fused to YopE1-138”, in assay [5], the “IC50 (MOI), pBad-MycHisA based delivery compared with pYV encoded” value is “slightly decreased IC50 value”; the “capacity of inducing apoptosis, IC50 (MOI needed to kill 50% of cells)” value is “decreased upon delivery of tandem repeats of tBID BH3 domain as compared to a single tBID BH3 domain”; the “cell death (nuclear count)” value is recorded as “more active than YopE1-138-(tBID-BH3) at lower MOI”; the “efficiency of cell killing, IC50 (MOI needed to kill 50% of cells)” value is recorded as “decreased upon delivery of tandem repeats of tBID BH3 domain as compared to a single tBID BH3 domain”. For the same molecule, in [6], the “IC50 (MOI), pBad-MycHisA based delivery compared with pYV encoded” value is recorded as “slightly decreased IC50 value”; the “capacity of inducing apoptosis, IC50 (MOI needed to kill 50% of cells)” value is on record as “decreased upon delivery of tandem repeats of tBID BH3 domain as compared to a single tBID BH3 domain”; the “cell death (nuclear count)” value is “more active than YopE1-138-(tBID-BH3) at lower MOI”; the “efficiency of cell killing, IC50 (MOI needed to kill 50% of cells)” value is “decreased upon delivery of tandem repeats of tBID BH3 domain as compared to a single tBID BH3 domain”.

As to “YopE1-138-(tBID-BH3)-(BAX-BH3): murine BH3 domain of tBID fused to murine BH3 domain of BAX, fused to YopE1-138”, the “cell death (nuclear count)” value in assay [5] and in assay [6] was “more active than YopE1-138-(tBID-BH3) at lower MOI” each time.

Take “YopE1-138-(tBID-BH3): BH3 domain of murine tBID fused to YopE1-138, control for repeated domain constructs”: the “cell death (nuclear count)” value in assay [5] and in assay [6] was “triggered cell death” throughout.

Regarding “YopE1-138-BID: YopE1-138 fusion to human BH3 interacting-domain death agonist (BID)”, in the assay on HeLa cells [1], the “apoptosis induction / cell death” value is “failed to induce apoptosis”.

For “YopE1-138-OspF: YopE1-138 fusion to S. flexneri type III effector OspF, a phosphothreonine lyase”, in the assay on p38, the “TNFα-induced p38 phosphorylation” value is recorded as “TNFα-induced phosphorylation was abolished”.

On to “YopE1-138-SopB: YopE1-138 fusion to Salmonella type III effector SopB”, for which the “phosphorylation of Akt at T308 and S473” value in the assay on Akt is “induced a strong phosphorylation of Akt at T308 and S473”.

Consider “YopE1-138-SopE-Myc: YopE1-138 fusion to SopE with MycHis tag”, for which the F-actin rearrangements entry with HeLa cells [7] is reported as “triggered massive F-actin rearrangements”.

“YopE1-138-SopE: YopE1-138 fusion to SopE from Salmonella enterica, a guanine nucleotide exchange factor”: in the assay with HeLa cells [7], the “changes in the actin network” value is “induced dramatic changes in the actin network” and the “first changes in the actin cytoskeleton observed” value is listed as 2 min p.i. Besides, the “phosphorylation of Akt at T308 and S473” value in the assay on Akt is “had no effect on Akt”.

For “YopE1-138-SptP: YopE1-138 fusion to SptP, a GTPase activating protein (GAP) for Cdc42”, the “effect of co-infection on F-actin rearrangements triggered by YopE1-138-SopE-Myc” value in the assay with HeLa cells [7] was “abolished this effect in a dose dependent manner”.

For “YopE1-138-tBID: YopE1-138 fusion to human truncated BID (tBID)”, in the assay on HeLa cells [1], the “apoptosis induction / cell death” value was “triggered cell death in larger extend than the well-characterized apoptosis inducer staurosporin”; the “apoptotic response (confocal images, mitochondrial integrity)” value is reported as “induces a rapid apoptotic response”; the “production of CASP3 p17 subunit” value is given as “lead to the production of CASP3 p17 subunit, even in larger amounts as with staurosporin”.

“YopE1-138-z-BIM: YopE1-138 fusion to zebrafish apoptosis inducer z-BIM”: the “apoptosis induction / cell death” value in the assay on HeLa cells [1] is “showed clear signs of cell death”. In addition, in the assay with zebrafish embryos, the “apoptosis in nearby cells, automated image analysis on maximum intensity z projections” value is “induce apoptosis in nearby cells by far more than control bacteria do” and the “cleaved CASP3 (p17) staining in regions surrounding the bacteria” value is “strong increase in presence of cleaved CASP3”.

For “murine tBID: murine tBID codon optimized for Y. enterocolitica fused to YopE1-138”, the cell death result in the assay on HeLa cells [1], in the assay with B16F10 cells, with D2A1 cells and in the assay with 4T1 cells was “triggered cell death” in each case.

B1: SteA1-20 fused murine tBID: 20 N-terminal amino acids of SteA fused to murine tBID, delivered by S. enterica (protein)
chain: MPYTSVSTYARALSGNKLPHGTGSQASRSFNQGRIEPDSESQEEIIHNIARHLAQIGDEMDHNIQPTLVRQLAAQFMNGSLSEEDKRNCLAKALDEVKTAFPRDMENDKAMLIMTMLLAKKVASHAPSLLRDVFHTTVNFINQNLFSYVRNLVRNEMD
modifications: SteA1-20 - S. enterica codon optimized murine t-BID
notes: 20 N-terminal amino acids of SteA fused to murine tBID, delivered by S. enterica
Turning to B1, in the assay on HeLa cells [3], the “apoptosis induction (CASP3 p17 subunit)” value is on record as “failed to induce apoptosis”.
